Measured values as given in patent US12611443B2, “Methods and compositions related to therapeutic peptides for cancer therapy” (THE UNIVERSITY OF CHICAGO, priority 2018, dated 2026).

Key:
[1] = system: human/murine cancer cells; test: In vitro cell viability of cancer cells (calcein-AM, CASP3, ANXA5); format: cell-based; settings: ELANE 3 μg/ml
Source text: Cell lines. The ovarian cancer cell lines—CAOV3, OVCAR3, OVCAR4, OVCAR5, A2780, A2780/CP70, HeyA8, TykNu, SKOV3, ID8, and ID8p53-/- were a gift from Dr. Ernst Lengyel, University of Chicago. The breast cancer cell lines—MDA-MB-231, MDA-MB-231.BM1, MCF-7, M6C, E0771, and E0771.LMB were a gift from Dr. Marsha Rosner, University of Chicago. The colon carcinoma cell line RKO, glioblastoma cancer cell line T98G, osteosarcoma cell lines U-2OS and Saos-2, and the hepatocellular carcinoma cell line HepG2 were a gift from Dr. Kay McLeod, University of Chicago. The lung cancer cell line NCI-H552 was a gift from Dr. Stephanie Huang, University of Chicago, and A549 and LLC1 cells were purchased from ATTC. The melanoma cell lines—B16F10, Mel888, Mel1106, and SK-MEL-28 cells were a gift from Dr. Thomas Gajewski, University of Chicago. The pancreatic cancer cell line PANC1 was a gift from Dr. Yamuna Krishnan, University of Chicago. The leukemia cell line K562 was a gift from Dr. Amittha Wickrema, University of Chicago.
The prostate cancer cell lines—CWR22Rv1, LAPC4, and LNCaP were a gift from Dr. Donald Vander Griend, University of Chicago. The neuroblastoma cell lines—SK-N-BE(2) and NBL-WN cells were a gift from Dr. Lucy Godley, University of Chicago.
Neutrophil media collections. Freshly isolated human or murine neutrophils were plated in serum-free DMEM for 24 h. Conditioned media was collected, spun at 500×g for 5 min, and media protein levels were determined with a Bradford assay (Biorad).
PMN media manipulations. For boiling, PMN media was boiled at 95° C. for 5 min and spun at 15,000×g for 10 min to remove precipitated proteins. For dialysis, PMN media was placed into a Slide-a-Lyzer™ cassette (3.5 kDa cutoff, ThermoFisher Scientific) and dialyzed against 2×4L of PBS at 4° C. for 4 h. For PMSF-inactivation, PMN media was treated with PMSF (1 mM, Sigma) or A1AT (42 nM, Athens Research & Technology) and incubated at room temperature for up to 2 h. Residual PMSF was eliminated with a PD-10 desalting column (GE Healthcare Life). Inhibition of ELANE catalytic activity was confirmed using a chromogenic substrate activity assay (see below). For serum-spiking experiments, human, mouse, or fetal bovine serum (1% or 10%) was added to PMN media prior to or after exposing cancer cells. For immune-depletion studies, ELANE or ECP were immunoprecipitated using anti-ELANE (N2C3, GeneTx) or anti-ECP (MB S2535165, MyBioSource) coupled to Pierce™ Protein A/G Magnetic Beads (ThermoFisher Scientific).
In vitro cell viability assays. […] Luminescence was measured using a Victor X3 luminometer (PerkinElmer).

[2] = system: survival, stress, and apoptosis pathways in cancer cells; test: Killing program in cancer cells (western blot, mitochondrial ROS); format: cell-based; settings: all 6 cancer cell lines tested
Description: Western Blot Analysis. Cells were lysed with 1% SDS containing protease and phosphatase inhibitors (Sigma), and protein was quantified with the BCA Protein Assay Kit (Pierce). Proteins (10-20 μg) were resolved on 10%, 12.5%, 15%, or 20% SDS-PAGE gels depending on the target protein, transferred to PVDF membranes (Millipore), blocked with 5% BSA (Sigma) in 0.1% TBS/Tween-20 at RT for 2 hrs, stained with primary and secondary antibodies, and visualized using the ECL detection kit (Biorad) and a LI-COR imager. Antibodies—Antibodies against pERK (4370), ERK (4695), pNFκB (3033), NFκB (8242), pJNK (4668), JNK (9252), CASP3 (9662), PARP (9542), H2AX (2595), TUBB (2125) were from Cell Signaling Technology. Antibodies against γH2AX (05-636-I, Millipore), ELANE (68672, Abcam), N-terminal CD95 (3070R, BioVision), and C-terminal CD95 (60196, Proteintech).
Mitochondrial ROS measurements. Cells were treated with various doses of ELANE for 30 min, washed, labeled with the CM-H2DCFDA dye (ThermoFisher Scientific, 10 μM) for 30 min at 37° C., and fluorescence was quantified by flow cytometry.

## ELANE: neutrophil elastase, a serine protease released by human PMNs
[1]
  apoptosis in cancer cell lines: effectively induced apoptosis in all cancer cell lines tested
[2]
  DNA damage (γH2AX): induced DNA damage
  mitochondrial ROS (MT ROS): increased MT ROS
  pro-apoptotic pathways (cCASP3 and cPARP): activated pro-apoptotic pathways
  survival pathways (phosphorylation of ERK, NFκB, or JNK): suppressed at least one survival pathway
